Values quoted from earlier work, collected in patent US7671089B2 (XenoPort, Inc., priority 2004, dated 2010).

Experiments:
[1] = following oral administration
[2] = rats

duration time [1] | levels of levodopa [1] | absorption following rectal administration [2] | SMILES
prolonged | low | – | CC(C)(C)C(=O)Oc1ccc(C[C@H](N)C(=O)O)cc1O [NB-355]
– | – | poor | C[C@@](Cc1ccc(O)c(O)c1)(NN)C(=O)O [carbidopa]
